From publication PMC10096180, “Half-Sandwich Type Platinum-Group Metal Complexes of C-Glucosaminyl Azines: Synthesis and Antineoplastic and Antimicrobial Activities” (Molecules, 2023)
Like-named read-outs stand apart in the source and are kept apart here.

Key:
[1] = tested on: primary human dermal fibroblasts; experiment: MTT reduction assay, early toxicity, 4 h treatment; assay type: cell-based; conditions: up to 100 μM
Summary of the method: (§1)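 Cells plated the day before, exposed to compounds for 4 h, then MTT 0.5 mg/mL for 40–60 min at 37 °C; reduced dye dissolved in DMSO, read at 540 nm relative to vehicle wells. IC50 by four-parameter fit; otherwise % inhibition at 100 μM.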

[2] = tested on: A2780 cells; experiment: MTT reduction assay, early toxicity, 4 h treatment; assay type: cell-based
Summary of the method: as §1

[3] = tested on: vancomycin-resistant Enterococcus (VRE) clinical isolates; experiment: Broth microdilution MIC, clinical VRE isolates; assay type: cell-based, E. faecium; conditions: 24 h, 0.08–40 μM
Summary of the method: (§2)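 S. aureus and E. faecium clinical isolates (Debrecen, 2018–2020; MALDI-TOF-identified) tested by EUCAST broth microdilution in Mueller–Hinton broth at 5.0 × 10^5 CFU/mL across 0.08–40 μM (twofold). After 24 h at 37 °C, visually read; MIC is the lowest concentration giving ≥50% inhibition versus growth control. At least two runs in duplicate.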

[4] = tested on: ID8 cells; experiment: SRB assay, 48 h; assay type: cell-based
Experimental: (§3) Figure 8 Assessment of free ligand 3a and complex Ru-3a for cytostatic activity in multiple carcinomas. […] Cells were treated with the compounds in the concentrations indicated for 48 h; then, an SRB assay was performed. Data are represented as average ± SD from three biological replicates; individual assays were performed in duplicates. Values were normalized for vehicle-treated cells; absorbance for vehicle-treated cells equals 1. Statistical significance was assessed using a one-way ANOVA test comparing all values to the lowest concentration of a compound. Before the test, normality was assessed using the Shapiro–Wilk test, and the post hoc test was chosen accordingly. […] An SRB assay measures protein content of cells in correlation with the cell number in an assay well and can therefore be used to assess cell proliferation or long-term cytostasis. Cells were seeded in 96-well plates the day before the assay. Cells were treated with the compounds for 48 h. Then medium was removed, and cells were fixed with 10% trichloroacetic acid. […] Stained cells were washed in 1% acetic acid 5 times; acetic acid was removed, and cells were left to dry. Protein-bound SRB was released by adding 100 μL 10 mM Tris base. Plates were measured in a plate photometer (Thermo Scientific Multiscan GO spectrophotometer, Waltham, MA, USA) at 540 nm. On each plate, wells were designed to contain vehicle-treated cells. […] Statistical analysis was performed using version 8.0.1 of GraphPad Prism. Values were tested for normal distribution using the Shapiro–Wilk normality test. […] In other cases, the percentage of inhibition was taken for the maximum concentration (100 μM).

[5] = tested on: Capan2 cells; experiment: SRB assay, 48 h; assay type: cell-based
Experimental: as §3

[6] = tested on: U251 cells; experiment: SRB assay, 48 h; assay type: cell-based
Experimental: as §3

[7] = tested on: MCF7 cells; experiment: SRB assay, 48 h; assay type: cell-based
Experimental: as §3

[8] = tested on: methicillin-resistant Staphylococcus aureus (MRSA) clinical isolates; experiment: Broth microdilution MIC, clinical MRSA isolates; assay type: cell-based; conditions: 24 h, 0.08–40 μM
Summary of the method: as §2

[9] = tested on: Staphylococcus aureus (ATCC29213); experiment: Broth microdilution MIC, reference strain; assay type: cell-based; conditions: 0.08–40 μM, read-out: MIC S. aureus ATCC 29213
Summary of the method: (§4)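 EUCAST broth microdilution in Mueller–Hinton broth, inoculum 5.0 × 10^5 CFU/mL, compounds at 0.08–40 μM (twofold dilutions), 24 h at 37 °C. Plates read visually; MIC taken as lowest concentration giving ≥50% inhibition versus drug-free growth control.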

[10] = tested on: Enterococcus faecalis (ATCC29212); experiment: Broth microdilution MIC, reference strain; assay type: cell-based; conditions: 24 h, tested range 0.08–40 μM, read-out: MIC E. faecalis ATCC 29,212
Summary of the method: as §4

[11] = tested on: A2780 cells; experiment: SRB binding assay, cytostasis, 48 h treatment; assay type: cell-based; conditions: for A2780 SRB Max Inhibition: up to 100 μM, ND = not detectable
Summary of the method: (§5)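 Ovarian cancer A2780 cells and primary human dermal fibroblasts treated 48 h, TCA-fixed, SRB-stained, absorbance at 540 nm relative to vehicle. IC50 from four-parameter fit when a plateau was reached or inhibition exceeded 90%; otherwise percent inhibition at 100 μM.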

[12] = tested on: Gram-positive multiresistant bacteria (Staphylococcus aureus, Enterococcus species); design: method as in PMID 35494644, PMID 36793764; conditions: Figure 1, Staphylococcus aureus; cited from earlier work
[13] = tested on: A2780 (ovarian); conditions: Figure 1, complex Ia; read-out: IC50 A2780 (ovarian, cisplatin resistant); cited from earlier work
[14] = tested on: ID8 (ovarian); design: method as in PMID 36793764, PMID 34638791, PMID 35054999; conditions: Figure 1, complex Ia; cited from earlier work
[15] = tested on: Saos (sarcoma); design: method as in PMID 36793764, PMID 34638791, PMID 35054999; conditions: Figure 1, complex Ia; cited from earlier work
[16] = tested on: Capan2 (pancreatic adenocarcinoma); design: method as in PMID 36793764, PMID 34638791, PMID 35054999; conditions: Figure 1, complex Ia; cited from earlier work
[17] = Distribution coefficient (logD), n-octanol-PBS; assay type: physicochemical; conditions: n-octanol-PBS (pH = 7.4) system
Experimental: The logD values of the newly synthesized complexes were determined according to a procedure described in our previous publications. page 64: Ir-7b +1.17 Rh-7b +1.41 Ru-7c +1.31 Os-7c +1.59 Ir-7c +1.40 Rh-7c +1.13 Ru-7d +1.26 Os-7d +1.42 Ir-7d +1.30 Rh-7d +1.04 Ru-7e +2.22 Os-7e +2.21 Ir-7e +1.39 Rh-7e +1.66 *logD was determined in an n-octanol-PBS (pH = 7.4) system 64 (14 pictures or pasted objects on this page, not shown here)

[18] = tested on: primary human dermal fibroblasts; experiment: SRB binding assay, cytostasis, 48 h treatment; assay type: cell-based; conditions: up to 100 μM, ND = not detectable
Summary of the method: as §5

[19] = inhibition at maximum concentration (100 μM) where no plateau, ND = not detectable
[20] = clinical isolate 25,051 VRE, read-out: MIC 25,051 VRE
[21] = clinical isolate 25,498 VRE, read-out: MIC 25,498 VRE
[22] = clinical isolate 27,085 VRE, read-out: MIC 27,085 VRE
[23] = clinical isolate 20,426 MRSA, read-out: MIC 20,426 MRSA
[24] = clinical isolate 24,035 MRSA, read-out: MIC 24,035 MRSA
[25] = clinical isolate 24,268 MRSA, read-out: MIC 24,268 MRSA
[26] = clinical isolate 24,272 MRSA, read-out: MIC 24,272 MRSA
[27] = clinical isolate 24,328 MRSA, read-out: MIC 24,328 MRSA
[28] = clinical isolate 24,408 MRSA, read-out: MIC 24,408 MRSA

With `N[C@@H]1[C@@H](OCc2ccccc2)[C@H](OCc2ccccc2)[C@@H](COCc2ccccc2)O[C@H]1c1ccccn1` [Complex 3a, 2-(2′-Amino-2′-deoxy-3′,4′,6′-tri-O-benzyl-β-D-glucopyranosyl)pyridine] the “Fibroblast MTT Max Inhibition” value [1] was 32.22%, the inhibition at 100 µM ([2]; Homo sapiens, inhibition at maximum concentration (100 μM) where no plateau, ND = not detectable, read-out: A2780 MTT Max Inhibition) was 70.2% and the MIC ([3]; Enterococcus, clinical isolate 25,051 VRE, read-out: MIC 25,051 VRE) was over 40 µM. It also gave an MIC ([3]; Enterococcus, clinical isolate 25,498 VRE, read-out: MIC 25,498 VRE) of over 40 µM, an MIC ([3]; Enterococcus, clinical isolate 27,085 VRE, read-out: MIC 27,085 VRE) of over 40 µM and an IC50 [4] of 13.1 µM. For the same compound, the “ID8 SRB Max Inhibition” value [4] was over 90%, the IC50 ([4]; Mus musculus, ID8, 48 h) was 10 to 30 µM and the “Capan2 SRB Max Inhibition” value [5] was over 90%. The IC50 [5] was 15 µM, the IC50 ([5]; Homo sapiens, Capan-2, 48 h) was 10 to 30 µM and the “U251 SRB Max Inhibition” value [6] was over 90%. The “MCF7 SRB Max Inhibition” value [7] was over 90%, the MIC ([8]; Staphylococcus aureus, clinical isolate 20,426 MRSA, read-out: MIC 20,426 MRSA) was over 40 µM and the MIC ([8]; Staphylococcus aureus, clinical isolate 24,035 MRSA, read-out: MIC 24,035 MRSA) was over 40 µM. For the same compound, the MIC ([8]; Staphylococcus aureus, clinical isolate 24,268 MRSA, read-out: MIC 24,268 MRSA) was over 40 µM, the MIC ([8]; Staphylococcus aureus, clinical isolate 24,272 MRSA, read-out: MIC 24,272 MRSA) was over 40 µM and the MIC ([8]; Staphylococcus aureus, clinical isolate 24,328 MRSA, read-out: MIC 24,328 MRSA) was over 40 µM. For the same compound, the MIC ([8]; Staphylococcus aureus, clinical isolate 24,408 MRSA, read-out: MIC 24,408 MRSA) was over 40 µM, the MIC ([9]; Staphylococcus aureus, ATCC29213, 24 h) was over 40 µM and the MIC ([10]; Enterococcus faecalis) was over 40 µM. The IC50 [11] was 36.2 µM, the IC50 ([11]; Homo sapiens, A2780, 48 h) was over 30 µM and the “A2780 SRB Max Inhibition” value [11] was over 90%.

In the case of `Cc1ccc(C(C)C)cc1.F[P-](F)(F)(F)(F)F.O=C(OCC1OC(n2cc(-c3ccc4ccccc4n3)nn2)C(OC(=O)c2ccccc2)C(OC(=O)c2ccccc2)C1OC(=O)c1ccccc1)c1ccccc1.[Cl][Os+]` (stereo not shown) [Ia], the “MIC on Gram-positive multiresistant bacteria” value [12] is listed as 5 to 20 µM, the IC50 [13] is listed as 0.43 µM and the IC50 [14] is listed as 0.36 µM. The IC50 [15] was 1.29 µM and the IC50 [16] was 1.35 µM.

For `Cc1ccc(C(C)C)cc1.F[P-](F)(F)(F)(F)F.N[C@@H]1[C@@H](OC(=O)c2ccccc2)[C@H](OC(=O)c2ccccc2)[C@@H](COC(=O)c2ccccc2)O[C@H]1c1ccccn1.[Cl][Os+]` [Os-7a], the “Fibroblast MTT Max Inhibition” value [1] was 65.18%, the IC50 [2] was 13.8 µM and the “A2780 MTT Max Inhibition” value [2, 19] was over 90%. For the same compound, the MIC [3, 20] was 5 µM, the MIC [3, 21] was 5 µM and the MIC [3, 22] was 10 µM. The logD [17] was 2.15, the MIC [8, 23] was 10 µM and the MIC [8, 24] was 10 µM. It also gave an MIC [8, 25] of 5 µM, an MIC [8, 26] of 5 µM and an MIC [8, 27] of 5 µM. For the same compound, the MIC [8, 28] was 5 µM, the MIC ([9]; 24 h) was 10 µM and the MIC [10] was 5 µM. For the same compound, the “Fibroblast SRB Max Inhibition” value [18] was 49.00%, the IC50 [11] was 8.58 µM and the “A2780 SRB Max Inhibition” value [11] was over 90%.

With `Cc1c(C)c(C)[c-](C)c1C.F[P-](F)(F)(F)(F)F.N[C@@H]1[C@@H](OC(=O)c2ccccc2)[C@H](OC(=O)c2ccccc2)[C@@H](COC(=O)c2ccccc2)O[C@H]1c1ccccn1.[Cl][Rh+2]` [Rh-7a] the “Fibroblast MTT Max Inhibition” value [1] was 27.02%, the “A2780 MTT Max Inhibition” value [2, 19] was 35.97% and the MIC [3, 20] was over 40 µM. For the same compound, the MIC [3, 21] was over 40 µM, the MIC [3, 22] was over 40 µM and the logD [17] was 1.20. The MIC [8, 23] was over 40 µM, the MIC [8, 24] was over 40 µM and the MIC [8, 25] was over 40 µM. It also gave an MIC [8, 26] of over 40 µM, an MIC [8, 27] of over 40 µM and an MIC [8, 28] of over 40 µM. The MIC ([9]; 24 h) was over 40 µM, the MIC [10] was over 40 µM and the “Fibroblast SRB Max Inhibition” value [18] was 32.56%. The IC50 [11] was 18.2 µM and the “A2780 SRB Max Inhibition” value [11] was over 90%.

In the case of `Cc1ccc(C(C)C)cc1.F[P-](F)(F)(F)(F)F.N[C@@H]1[C@@H](OC(=O)c2ccccc2)[C@H](OC(=O)c2ccccc2)[C@@H](COC(=O)c2ccccc2)O[C@H]1c1ccccn1.[Cl][Ru+]` [Ru-7a], the “Fibroblast MTT Max Inhibition” value [1] is reported as 65.18%, the IC50 [2] is reported as 9.15 µM and the “A2780 MTT Max Inhibition” value [2, 19] is reported as over 90%. The MIC [3, 20] was 5 µM, the MIC [3, 21] was 5 µM and the MIC [3, 22] was 5 µM. It also gave a logD [17] of 1.15, an MIC [8, 23] of 5 µM and an MIC [8, 24] of 5 µM. It also gave an MIC [8, 25] of 5 µM, an MIC [8, 26] of 5 µM and an MIC [8, 27] of 5 µM. The MIC [8, 28] was 5 µM, the MIC ([9]; 24 h) was 5 µM and the MIC [10] was 5 µM. For the same compound, the “Fibroblast SRB Max Inhibition” value [18] was 56.31%, the IC50 [11] was 4.11 µM and the “A2780 SRB Max Inhibition” value [11] was over 90%.
